The record followed here is patent publication US20240400553A1, “AMINE BASED MATRIPTASE 2 INHIBITORS AND USES THEREOF” (Disc Medicine, Inc., priority 2023, published 2024).

Where only a bound is given, the exact number is not on record here.

For one assay, the target named is T1, Human Recombinant Matriptase 2 (Homo sapiens, UniProt Q8IU80).
T1 construct: made in house
T1 sequence (Q8IU80 1-811): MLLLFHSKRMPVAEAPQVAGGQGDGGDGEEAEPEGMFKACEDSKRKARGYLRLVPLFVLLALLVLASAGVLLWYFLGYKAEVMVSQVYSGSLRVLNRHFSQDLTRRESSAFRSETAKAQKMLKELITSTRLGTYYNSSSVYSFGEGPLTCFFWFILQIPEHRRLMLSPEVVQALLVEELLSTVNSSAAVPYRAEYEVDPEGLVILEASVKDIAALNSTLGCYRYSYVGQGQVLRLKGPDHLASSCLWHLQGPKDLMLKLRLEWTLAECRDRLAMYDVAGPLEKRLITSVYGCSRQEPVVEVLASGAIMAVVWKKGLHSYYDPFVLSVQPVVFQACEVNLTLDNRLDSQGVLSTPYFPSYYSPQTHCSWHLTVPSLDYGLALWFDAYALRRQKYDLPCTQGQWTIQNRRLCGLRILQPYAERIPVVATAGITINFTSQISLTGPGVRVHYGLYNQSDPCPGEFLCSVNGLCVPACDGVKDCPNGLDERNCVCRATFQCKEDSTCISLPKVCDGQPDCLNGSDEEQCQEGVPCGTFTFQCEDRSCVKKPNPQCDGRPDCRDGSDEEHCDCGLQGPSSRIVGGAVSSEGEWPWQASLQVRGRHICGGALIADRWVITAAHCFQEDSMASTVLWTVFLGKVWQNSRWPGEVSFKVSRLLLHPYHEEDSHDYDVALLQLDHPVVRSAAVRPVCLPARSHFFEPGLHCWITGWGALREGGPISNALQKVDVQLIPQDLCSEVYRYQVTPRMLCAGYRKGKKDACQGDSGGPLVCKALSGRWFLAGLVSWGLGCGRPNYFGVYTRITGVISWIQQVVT
Put plainly: Matriptase 2 inhibition, fluorescence based assay (Method I). Type of assay: biochemical. Particulars: Table A; Ki of Matriptase-2; read-out: Mat-2 Ki. A digest of the protocol: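 Fluorogenic readout (Ex 360/Em 480 nm) taken 60 min after adding 62 μM Boc-Gln-Ala-Arg-AMC, following 30-min enzyme–compound preincubation at 25 °C. Conditions: 3.5 nM in-house enzyme, pH 7.5 Tris/NaCl/gelatin buffer, 1% DMSO; percent inhibition versus concentration fitted by variable-slope sigmoidal regression.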
Consider `CC(C)OC(=O)c1cc2ccc(CN)nc2n1Cc1cc(NS(=O)(=O)Cc2ccccc2)cc2ccccc12` [Compound 112, propan-2-yl 6-(amino-methyl)-1-{[3-(phenyl-methanesulfonamido)-naphthalen-1-yl]methyl}-1H-pyrrolo[2,3-b]pyr-idine-2-carboxylate], for which the Ki lay within 500 to 3000 nM. Same read-out and setting: the value for `NCc1ccc2cc(C(=O)OCCn3cccc3)n(Cc3cc(NS(=O)(=O)Cc4ccccc4)cc4ccccc34)c2n1` [Compound 114, 2-(1H-pyrrol-1-yl)ethyl 6-(aminomethyl)-1-{[3-(phenylmethanesulfon-amido)naphthalen-1-yl]-methyl}-1H-pyrrolo[2,3-b]pyridine-2-carboxylate] was 500 to 3000 nM; that for `CN1CCN(C)[C@@H](COC(=O)c2cc3ccc(CN)nc3n2Cc2cc(NS(=O)(=O)Cc3ccccc3)cc3ccccc23)C1` (racemic) [Compound 51, (1,4-dimethylpiperazin-2-yl)methyl 6-(amino-methyl)-1-{[3-(phenyl-methanesulfonamido)-naphthalen-1-yl]methyl}-1H-pyrrolo[2,3-b]pyr-idine-2-carboxylate] was ≤ 100 nM; that for `NCc1ccc2cc(C(=O)OCCC3CCOCC3)n(Cc3cc(NS(=O)(=O)Cc4ccccc4)cc4ccccc34)c2n1` [Compound 102, 2-(oxan-4-yl)ethyl 6-(aminomethyl)-1-{[3-(phenylmethanesulfon-amido)naphthalen-1-yl]-methyl}-1H-pyrrolo[2,3-b]pyridine-2-carboxylate] was 100 to 500 nM. Consider `NCc1ccc2cc(C(=O)O)n(Cc3cc(NS(=O)(=O)C4(c5ccccc5)CC4)cc4ccccc34)c2n1` [Compound 113, 6-(aminomethyl)-1-{[3-(1-phenylcyclopropane-sulfonamido)naphthalen-1-yl]methyl}-1H-pyr-rolo[2,3-b]pyridine-2-carboxylic acid], for which the Ki lay in the range of 500 to 3000 nM. The same measure, in the same setting: to `C[C@H](OC(=O)c1cc2ccc(CN)nc2n1Cc1cc(NS(=O)(=O)Cc2ccccc2)cc2ccccc12)C1CCN(C)CC1` (racemic) [Compound 48, 1-(1-methylpiperidin-4-ylethyl 6-(aminomethyl)-1-{[3-(phenylmethane-sulfonamido)naphthalen-1-yl]methyl}-1H-pyr-rolo[2,3-b]pyridine-2-carboxylate] belongs ≤ 100 nM. On the same count and under the same terms, the value for `NCc1ccc2cc(C(=O)OCC3CCNCC3)n(Cc3cc(NS(=O)(=O)Cc4ccccc4)cc4ccccc34)c2n1` [Compound 9, (piperidin-4-yl)methyl 6-(aminomethyl)-1-{[3-(phenylmethanesulfon-amido)naphthalen-1-yl]-methyl}-1H-pyrrolo[2,3-b]pyridine-2-carboxylate] was ≤ 100 nM; that for `NCc1ccc2cc(C(=O)OCCN3CCNCC3)n(Cc3cc(NS(=O)(=O)Cc4ccccc4)cc4ccccc34)c2n1` [Compound 33, 2-(piperazin-1-yl)ethyl 6-(aminomethyl)-1-{[3-(phenylmethanesulfon-amido)naphthalen-1-yl]-methyl}-1H-pyrrolo[2,3-b]pyridine-2-carboxylate] was ≤ 100 nM; that for `NCc1ccc2cc(C(=O)OCC[C@H]3CCCCN3)n(Cc3cc(NS(=O)(=O)Cc4ccccc4)cc4ccccc34)c2n1` (racemic) [Compound 32, 2-(piperidin-2-yl)ethyl 6-(aminomethyl)-1-{[3-(phenylmethanesulfon-amido)naphthalen-1-yl]-methyl}-1H-pyrrolo[2,3-b]pyridine-2-carboxylate] was ≤ 100 nM. Still for that read-out and setting: the value for `NCc1ccc2cc(C(=O)OCCn3cncn3)n(Cc3cc(NS(=O)(=O)Cc4ccccc4)cc4ccccc34)c2n1` [Compound 97] was 100 to 500 nM; that for `NCc1ccc2cc(C(=O)OCCN3CCCC3)n(Cc3cc(NS(=O)(=O)Cc4ccsc4)cc4ccccc34)c2n1` [Compound 177, 2-(pyrrolidin-1-yl)ethyl 6-(aminomethyl)-1-({3-[(thiophen-3-yl)methane-sulfonamido]naphthalen-1-yl}methyl)-1H-pyr-rolo[2,3-b]pyridine-2-carboxylate] was ≤ 100 nM. On to `Cc1cccc(C)c1CS(=O)(=O)Nc1cc(Cn2c(C(=O)NCC3CCN(C)CC3)cc3ccc(CN)nc32)c2ccccc2c1` [Compound 184, 6-(aminomethyl)-1-({3-[(2,6-dimethylphenyl)-methanesulfonamido]-naphthalen-1-yl}meth-yl)-N-[(1-methylpiper-idin-4-yl)methyl]-1H-pyrrolo[2,3-b]pyridine-2-carboxamide], for which the Ki is ≤ 100 nM.

Staying with this assay, now noted: Table A; Ki of Matriptase-2 given as class symbols; read-out: Mat-2 Ki.
For `Cc1cccc(C)c1CS(=O)(=O)Nc1cc(Cn2c(C(=O)NCCC3CCN(C)CC3)cc3ccc(CN)cc32)c2ccccc2c1` [Compound 373, 6-(aminomethyl)-1-({3-[(2,6-dimethylphenyl)-methanesulfonamido]-naphthalen-1-yl}methyl)-N-[2-(1-methylpiperidin-4-yl)ethyl]-1H-indole-2-carboxamide], the Ki is ≤ 100 nM. On the same count and under the same terms, to `COC[C@H]1CCCN1C(=O)Nc1cc(Cn2c(C(=O)O)cc3ccc(CN)nc32)c2ccccc2c1` [Compound 307] belongs 500 to 3000 nM; to `NCc1ccc2cc(C(=O)O)n(Cc3cc(NS(=O)(=O)CCCN4CCCC4)cc4ccccc34)c2n1` [Compound 232, 6-(aminomethyl)-1-({3-[3-(pyrrolidin-1-yl)-propanesulfonamido]-naphthalen-1-yl}methyl)-1H-pyrrolo[2,3-b]pyr-idine-2-carboxylic acid], 100 to 500 nM.

On to `CCOC(=O)c1cc2ccc(CN)nc2n1Cc1cc(NS(=O)(=O)Cc2c(C)cccc2C)cc2ccccc12` [Compound 202, ethyl 6-(aminomethyl)-1-({3-[(2,6-dimethyl-phenyl)methanesulfon-amido]naphthalen-1-yl}-methyl)-1H-pyrrolo[2,3-b]pyridine-2-carboxylate], for which the inhibition constant Ki was in the range of 500 to 3000 nM.

With `C[C@@H](C(=O)N(C)C)S(=O)(=O)Nc1cc(Cn2c(C(=O)O)cc3ccc(CN)nc32)c2ccccc2c1` (racemic) [Compound 255, rac-6-(aminomethyl)-1-({3-(dimethylcarbam-oyl)ethanesulfonamido]-naphthalen-1-yl}methyl)-1H-pyrrolo[2,3-b]pyr-idine-2-carboxylic acid], the Ki was ≤ 100 nM. Turning to `NCc1ccc2cc(C(=O)OCCO)n(Cc3cc(NS(=O)(=O)CC[C@@H]4CCCN4)cc4ccccc34)c2n1` [Compound 260, 2-hydroxyethyl 6-(aminomethyl)-1-[(3-{2-[(2S)-pyrrolidin-2-yl]-ethanesulfonamido}naph-thalen-1-yl)methyl]-1H-pyrrolo[2,3-b]pyridine-2-carboxylate], the inhibition constant Ki was 100 to 500 nM. In the case of `C[C@@H]1OCCC1S(=O)(=O)Nc1cc(Cn2c(C(=O)O)cc3ccc(CN)nc32)c2ccccc2c1` (stereo partly drawn) [Compound 272, 6-(aminomethyl)-1-({3-[(2S)-2-methyloxolane-3-sulfonamido]naph-thalen-1-yl}methyl)-1H-pyrrolo[2,3-b]pyridine-2-carboxylic acid], the Ki fell in the range of 500 to 3000 nM. `CN(C)Cc1nnc(-c2cc3ccc(CN)nc3n2Cc2cc(NS(=O)(=O)Cc3ccccc3)cc3ccccc23)o1` [Compound 347, N-(4-{[6-(aminomethyl)-2-{5-[(dimethylamino)-methyl]-1,3,4-oxadiazol-2-yl}-1H-pyrrolo[2,3-b]pyridin-1-yl]methyl}-naphthalen-2-yl)-1-phen-ylmethanesulfonamide]: the inhibition constant Ki is 100 to 500 nM.

In the case of `COCCN1CCN(C(=O)Nc2cc(Cn3c(C(=O)O)cc4ccc(CN)nc43)c3ccccc3c2)CC1` [Compound 288, 6-(aminomethyl)-1-((3-(4-(2-methoxyethyl)piperazine-1-carboxamido)naphthalen-1-yl)methyl)-1H-pyrrolo[2,3-b]pyridine-2-carboxylic acid], the Ki fell in the range of 100 to 500 nM. With `CN1CCC(COC(=O)c2cc3ccc(CN)nc3n2Cc2cc(NS(=O)(=O)Cc3ccc(F)cc3)cc3ccccc23)CC1` [Compound 206, (1-methylpiperidin-4-yl)-methyl 6-(aminomethyl)-1-({3-[(4-fluorophenyl)-methanesulfonamido]-naphthalen-1-yl}meth-yl)-1H-pyrrolo[2,3-b]-pyridine-2-carboxylate], the inhibition constant (Ki) was ≤ 100 nM.

The same assay, now with this note: Table B; Human Recombinant Matriptase 2, 3.5 nM enzyme, 62 μM substrate, 30 mins preincubation; read-out: Mean Ki.
`CN1CCC(COC(=O)c2cc3ccc(CN)nc3n2Cc2cc(NS(=O)(=O)Cc3ccccc3)cs2)CC1` [Compound 2.45]: the Ki is > 3000 nM. Regarding `CN(C)C12CC(COC(=O)c3cc4ccc(CN)nc4n3Cc3cc(NS(=O)(=O)Cc4ccccc4)cc4ccccc34)(C1)C2` [Compound 2.40], the Ki is ≤ 100 nM. In the case of `CN1CCC(COC(=O)c2cc3ccc(CN)nc3n2Cc2cccn3nccc23)CC1` [Compound 2.26], the inhibition constant (Ki) was > 3000 nM.

A word on the Ki: it is a dissociation constant, usually derived from enzyme kinetics or from competition with a known ligand.
